Reference: PubChem BioAssay (NCI)
Several values for one entry are separate records, joined by “and”; a condition that tells them apart may be missing. Equal entries are not always repeated.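 Cultured in 96-well plates, cells were exposed to test compound for 48 hours across five concentrations. GI50: concentration for 50% inhibition of growth. At the TGI there is no net growth.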

Assays:
Assay in all cases: NCI-60 cell line screen, 48 h
BT-549 breast = system: BT-549 breast
LOX IMVI melanoma = system: LOX IMVI melanoma
A498 renal = system: A498 renal
OVCAR-4 ovarian = system: OVCAR-4 ovarian
OVCAR-5 ovarian = system: OVCAR-5 ovarian
EKVX NSCLC = system: EKVX NSCLC
SK-OV-3 ovarian = system: SK-OV-3 ovarian
MDA-MB-231 breast = system: MDA-MB-231 breast
SR leukemia = system: SR leukemia
HT29 colon = system: HT29 colon

Structure (SMILES)	TGI (BT-549 breast)	TGI (LOX IMVI melanoma)	TGI (A498 renal)	TGI (OVCAR-4 ovarian)	TGI (OVCAR-5 ovarian)	TGI (EKVX NSCLC)	TGI (SK-OV-3 ovarian)	TGI (MDA-MB-231 breast)	TGI (SR leukemia)	TGI (HT29 colon)	GI50 (BT-549 breast)	GI50 (LOX IMVI melanoma)	GI50 (A498 renal)	GI50 (OVCAR-4 ovarian)	GI50 (OVCAR-5 ovarian)	GI50 (EKVX NSCLC)	GI50 (SK-OV-3 ovarian)	GI50 (MDA-MB-231 breast)	GI50 (SR leukemia)	GI50 (HT29 colon)
CN1C(=O)[C@](C)(Cc2ccc(F)cc2)N(C(=O)OC(C)(C)C)[C@@H]1C(C)(C)C	> 100 µM	53 µM	70 µM	> 100 µM	> 100 µM	> 100 µM	> 100 µM	> 100 µM	43.9 µM	45.6 µM	–	–	–	–	–	–	–	–	–	–
CCOC(=O)CCN1C(=O)c2c(NC(=O)C(=O)O)cccc2S1(=O)=O	> 100 µM	> 100 µM	> 100 µM	> 100 µM	> 100 µM	> 100 µM	> 100 µM	> 100 µM	> 100 µM	> 100 µM	–	–	–	–	–	–	–	–	–	–
COc1cc2c3c4[n+](cc2c(OC)c1OC)CCC4CCC3 (stereo not drawn)	> 100 µM	> 100 µM	> 100 µM	> 100 µM	> 100 µM	> 100 µM	> 100 µM	> 100 µM	> 100 µM	> 100 µM	–	–	–	–	–	–	–	–	–	–
O=c1[nH]c(=O)c2c([nH]1)[nH]c1ccccc12	> 100 µM	> 100 µM	> 100 µM	> 100 µM	> 100 µM	> 100 µM	> 100 µM	> 100 µM	> 100 µM	> 100 µM	–	–	–	–	–	–	–	–	–	–
N#CC(NNC(=O)c1c(Cl)c(Cl)c(Cl)c(Cl)c1-c1nc2ccc(C(=O)c3ccccc3)cc2[nH]1)c1cccc(Oc2ccccc2)c1 (stereo not drawn)	64.8 µM	> 100 µM	63.4 µM	> 100 µM	80.3 µM	37.6 µM	> 100 µM	45.2 µM	54.4 µM	> 100 µM	–	–	–	–	–	–	–	–	–	–
COc1ccc(Nc2ccnc3cc(Cl)ccc23)cc1CN(CCCl)CCCl	13 µM	4.39 µM	6.47 µM	5.19 µM	5.94 µM	> 21.5 µM	–	15.9 µM	0.699 µM	6.42 µM	1.78 µM	0.724 µM	2.12 µM	1.74 µM	2.84 µM	1.9 µM	1.56 µM	2.45 µM	0.158 µM	1.62 µM
NC(=O)c1nnc2c(F)cccc2c1N	> 100 µM	> 100 µM	> 100 µM	> 100 µM	> 100 µM	> 100 µM	> 100 µM	> 100 µM	> 100 µM	> 100 µM	–	–	–	–	–	–	–	–	–	–
COC1OC(=O)C(OC)C(OC)C1OC (stereo not drawn)	> 100 µM	> 100 µM	> 100 µM	> 100 µM	> 100 µM	> 100 µM	> 100 µM	> 100 µM	> 100 µM	> 100 µM	–	–	–	–	–	–	–	–	–	–
CN1CCN(C2CC(=O)c3c(Cl)sc(Cl)c32)CC1 (stereo not drawn)	> 52.2 µM	3.83 µM	> 75 µM	> 42.9 µM	> 60.8 µM	> 55.5 µM	> 90 µM	48 µM	> 100 µM	33.7 µM	–	–	–	–	–	–	–	–	–	–
CC(=O)OC1COC(n2c(N)c(C#N)c(-c3ccccc3)c(C#N)c2=S)C(OC(C)=O)C1OC(C)=O (stereo not drawn)	71.8 µM and 62.9 µM	79 µM and 76.7 µM	66 µM and 79.3 µM	> 100 µM	> 100 µM	> 100 µM	> 100 µM	> 100 µM	46.3 µM and 52.2 µM	> 100 µM	–	–	–	–	–	–	–	–	–	–
CC(C)(CO)Nc1c(O)c2c(c(O)c1Cl)C(=O)C=CC2=O	2.24 µM	1.19 µM	3.36 µM	2.92 µM	3.02 µM	3.82 µM	2.91 µM	3.15 µM	0.782 µM	3.4 µM	–	–	–	–	–	–	–	–	–	–
O=C(N(C1=CCCC1)N(c1ccccc1)c1ccccc1)C(F)(F)F	94.8 µM	31.5 µM	> 100 µM	> 100 µM	> 100 µM	39.1 µM	> 100 µM	34.3 µM	90.4 µM	42.6 µM	–	–	–	–	–	–	–	–	–	–
Oc1cccc(-c2cn3cc(Cl)ccc3n2)c1	> 100 µM	> 100 µM	> 100 µM	> 100 µM	> 100 µM	83.5 µM	> 100 µM	> 100 µM	> 100 µM	> 100 µM	–	–	–	–	–	–	–	–	–	–
[O-][n+]1cc(SCc2ccccc2)ncc1SCc1ccccc1	> 10 µM	> 10 µM	> 10 µM	> 10 µM	> 10 µM	> 10 µM	> 10 µM	> 10 µM	> 10 µM	> 10 µM	–	–	–	–	–	–	–	–	–	–
CCOC(=O)CCC1(C(=O)O[C@@H]2C[C@H](C)CC[C@H]2C(C)C)CCCCC1=O (stereo partly drawn)	> 100 µM	> 100 µM	> 100 µM	> 100 µM	> 100 µM	> 100 µM	> 100 µM	> 100 µM	> 100 µM	> 100 µM	–	–	–	–	–	–	–	–	–	–
CCOC(=O)N1c2c(c3ccccc3n2C(=O)OCC)C(=O)C(OC)N1C(=O)OCC (stereo not drawn)	> 100 µM	38.8 µM	88.6 µM	> 100 µM	> 100 µM	> 100 µM	> 100 µM	83.6 µM	45.1 µM	85.5 µM	–	–	–	–	–	–	–	–	–	–
CO/C=C(/C(=O)OC)c1ccccc1[C@H]1C[C@@H]1c1ccccc1	52.2 µM	–	87.2 µM	62.3 µM	> 100 µM	54.6 µM	51.2 µM	> 100 µM	76.5 µM	56.5 µM	–	–	–	–	–	–	–	–	–	–
